The test system of data set [1] is Tobacco seeds germinated on MS medium containing DON. Also on record: species or system Nicotiana tabacum. To be noted: in vivo.
For another data set, the system named is wheat. To be noted: in vivo; cited from earlier work.
Data set [2] has as its system Tobacco seeds germinated on MS medium containing DAS. Also on record: species or system Nicotiana tabacum. To be noted: in vivo.
The test system of data set [3] is transgenic tobacco plants. The following applies: in vivo; cited from earlier work.
Data set [4] has as its system Phytophthora infestans, Colletotrichum coccodes, fusarium solani, fusarium sulphureum, Phoma foreata and Rhizoctonia solani. The following applies: cited from earlier work.

As for `CC1=C[C@H]2O[C@@H]3[C@H](O)C[C@](C)([C@@]2(CO)[C@H](O)C1=O)[C@]31CO1` [DON, Deoxynivalenol], in data set [1], the “lowest concentration that would give the best inhibition of wild type tobacco seed growth” value worked out at 10 µM. Further, in the data set with wheat, the inhibition toward wheat result is listed as “far more inhibitory than DAS”.
4,15-diacetoxyscirpenol [DAS]: the “lowest concentration that would give the best inhibition of wild type tobacco seed growth” value in data set [2] was determined as 1 µM.

B1: PAP: 29-kDa ribosome inactivating protein (protein)
chain: VNTIIYNVGSTTISKYATFLNDLRNEAKDPSLKCYGIPMLPNTNTNPKYVLVELQGSNKKTITLMLRRNNLYVMGYSDPFETNKCRYHIFNDISGTERQDVETTLCPNANSRVSKNINFDSRYPTLESKAGVKSRSQVQLGIQILDSNIGKISGVMSFTEKTEAEFLLVAIQMVSEAARFKYIENQVKTNFNRAFNPNPKVLNLQETWGKISTAIHDAKNGVLPKPLELVDASGAKWIVLRVDEIKPDVALLNYVGGSCQTTY
Turning to B1, the “phenotype of PAP-expressing tobacco plants” value in data set [3] is reported as “stunted, mottled phenotype”. Moreover, in data set [4], the “effect on growth of fungi in vitro” value is listed as “no effect on the growth”.

The record behind these values is patent publication US8026410B2 (priority 2003, dated 2011).
